In ChEMBL document CHEMBL4602612, “Design, synthesis and biological evaluation of mogrol derivatives as a novel class of AMPKα2β1γ1 activators” (Bioorg Med Chem Lett, 2020):

Assays:
[1] = molecular target: AMPK alpha2/beta1/gamma1 (Homo sapiens, UniProt P54619+P54646+Q9Y478); assay: Allosteric activation of AMPK alpha2/beta1/gamma1 in human HepG2 cells by scintillation proximity assay; type: cell-based
[2] = molecular target: AMPK alpha2/beta1/gamma1 (Homo sapiens) (UniProt P54646+P54619+Q9Y478); assay: Potency index, ratio of mogrol EC50 to test compound EC50 for allosteric activation of AMPK alpha2/beta1/gamma1 in human HepG2 cells by scintillation proximity assay; type: cell-based
Sequence of AMPK alpha2/beta1/gamma1 (Homo sapiens) (P54619 whole entry partner): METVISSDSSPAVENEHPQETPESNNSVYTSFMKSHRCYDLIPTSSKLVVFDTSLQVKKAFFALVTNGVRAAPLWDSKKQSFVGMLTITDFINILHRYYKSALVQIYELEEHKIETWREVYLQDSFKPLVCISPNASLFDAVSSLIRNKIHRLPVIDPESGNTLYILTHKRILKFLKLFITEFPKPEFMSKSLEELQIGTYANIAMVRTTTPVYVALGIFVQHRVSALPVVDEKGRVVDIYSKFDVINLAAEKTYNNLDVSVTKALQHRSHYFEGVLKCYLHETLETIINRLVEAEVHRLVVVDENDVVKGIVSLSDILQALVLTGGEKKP
Sequence of AMPK alpha2/beta1/gamma1 (Homo sapiens) (P54646 whole entry): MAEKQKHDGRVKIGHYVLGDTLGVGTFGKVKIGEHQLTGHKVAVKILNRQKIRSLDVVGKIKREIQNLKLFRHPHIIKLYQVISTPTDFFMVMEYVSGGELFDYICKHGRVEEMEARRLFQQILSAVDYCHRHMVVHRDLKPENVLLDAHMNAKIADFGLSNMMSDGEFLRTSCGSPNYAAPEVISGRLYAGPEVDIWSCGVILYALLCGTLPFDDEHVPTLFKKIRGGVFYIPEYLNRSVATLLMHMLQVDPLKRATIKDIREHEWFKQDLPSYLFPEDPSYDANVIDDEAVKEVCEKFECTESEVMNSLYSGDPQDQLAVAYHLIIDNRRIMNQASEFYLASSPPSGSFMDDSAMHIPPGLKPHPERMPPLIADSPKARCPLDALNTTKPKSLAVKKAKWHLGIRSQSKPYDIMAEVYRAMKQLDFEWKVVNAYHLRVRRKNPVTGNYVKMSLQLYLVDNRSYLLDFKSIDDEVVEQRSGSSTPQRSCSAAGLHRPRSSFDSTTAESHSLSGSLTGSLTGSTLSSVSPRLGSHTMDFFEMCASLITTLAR
Sequence of AMPK alpha2/beta1/gamma1 (Homo sapiens) (Q9Y478 2-270 partner limits assumed): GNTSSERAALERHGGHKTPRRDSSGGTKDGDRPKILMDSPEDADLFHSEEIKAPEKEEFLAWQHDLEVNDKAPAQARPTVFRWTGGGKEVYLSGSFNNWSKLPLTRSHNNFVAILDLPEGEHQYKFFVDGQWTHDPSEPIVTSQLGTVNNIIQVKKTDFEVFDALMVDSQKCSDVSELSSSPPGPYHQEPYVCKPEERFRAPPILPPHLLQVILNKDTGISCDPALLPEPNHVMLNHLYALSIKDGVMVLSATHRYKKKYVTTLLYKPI

Sequence of AMPK alpha2/beta1/gamma1 (P54646 whole entry): as the sequence (P54646 whole entry) above
Sequence of AMPK alpha2/beta1/gamma1 (P54619 whole entry): as the sequence (P54619 whole entry partner) above
Sequence of AMPK alpha2/beta1/gamma1 (Q9Y478 whole entry): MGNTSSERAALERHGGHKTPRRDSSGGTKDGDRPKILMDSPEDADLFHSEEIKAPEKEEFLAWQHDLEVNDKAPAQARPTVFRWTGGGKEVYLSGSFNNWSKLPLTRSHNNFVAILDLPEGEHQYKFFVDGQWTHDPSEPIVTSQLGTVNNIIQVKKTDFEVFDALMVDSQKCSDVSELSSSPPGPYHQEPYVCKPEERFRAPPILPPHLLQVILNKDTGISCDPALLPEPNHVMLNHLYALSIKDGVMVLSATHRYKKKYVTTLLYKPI

C[C@H](CCCNCc1ccccn1)[C@H]1CC[C@@]2(C)[C@@H]3CC=C4[C@@H](CC[C@H](O)C4(C)C)[C@]3(C)[C@H](O)C[C@]12C
EC50 [1]: 1.6 µM

C[C@H](CCCNC1CC1)[C@H]1CC[C@@]2(C)[C@@H]3CC=C4[C@@H](CC[C@H](O)C4(C)C)[C@]3(C)[C@H](O)C[C@]12C
EC50 [1]: 4.1 µM

C[C@H](CCCNCc1cccnc1)[C@H]1CC[C@@]2(C)[C@@H]3CC=C4[C@@H](CC[C@H](O)C4(C)C)[C@]3(C)[C@H](O)C[C@]12C
EC50 [1]: 0.7 µM

CNCCC[C@@H](C)[C@H]1CC[C@@]2(C)[C@@H]3CC=C4[C@@H](CC[C@H](O)C4(C)C)[C@]3(C)[C@H](O)C[C@]12C
EC50 [1]: 7.4 µM

CCNCCC[C@@H](C)[C@H]1CC[C@@]2(C)[C@@H]3CC=C4[C@@H](CC[C@H](O)C4(C)C)[C@]3(C)[C@H](O)C[C@]12C
EC50 [1]: 5 µM

C[C@H](NCCC[C@@H](C)[C@H]1CC[C@@]2(C)[C@@H]3CC=C4[C@@H](CC[C@H](O)C4(C)C)[C@]3(C)[C@H](O)C[C@]12C)c1ccccc1
EC50 [1]: 1.7 µM

C[C@H](CCCNCCc1ccc([N+](=O)[O-])cc1)[C@H]1CC[C@@]2(C)[C@@H]3CC=C4[C@@H](CC[C@H](O)C4(C)C)[C@]3(C)[C@H](O)C[C@]12C
EC50 [1]: 1.7 µM

C[C@H](CCCNCc1ccncc1)[C@H]1CC[C@@]2(C)[C@@H]3CC=C4[C@@H](CC[C@H](O)C4(C)C)[C@]3(C)[C@H](O)C[C@]12C
EC50 [1]: 0.5 µM

C[C@H](CCCNC(C)(C)C)[C@H]1CC[C@@]2(C)[C@@H]3CC=C4[C@@H](CC[C@H](O)C4(C)C)[C@]3(C)[C@H](O)C[C@]12C
EC50 [1]: 1.4 µM

C[C@H](CC[C@@H](O)C(C)(C)O)[C@H]1CC[C@@]2(C)[C@@H]3CC=C4[C@@H](CC[C@H](O)C4(C)C)[C@]3(C)[C@H](O)C[C@]12C [MOGROL]
EC50 [1]: 3 µM

C[C@H](CCCNCCN1CCNCC1)[C@H]1CC[C@@]2(C)[C@@H]3CC=C4[C@@H](CC[C@H](O)C4(C)C)[C@]3(C)[C@H](O)C[C@]12C
EC50 [1]: 0.5 µM

Nc1ncnc2c1ncn2[C@@H]1O[C@H](COP(=O)(O)O)[C@@H](O)[C@H]1O [ADENOSINE PHOSPHATE]
EC50 [1]: 1.4 µM

CC(C)NCCC[C@@H](C)[C@H]1CC[C@@]2(C)[C@@H]3CC=C4[C@@H](CC[C@H](O)C4(C)C)[C@]3(C)[C@H](O)C[C@]12C
EC50 [1]: 0.14 µM | Ratio EC50 [2]: 20

COc1ccc(CNCCC[C@@H](C)[C@H]2CC[C@@]3(C)[C@@H]4CC=C5[C@@H](CC[C@H](O)C5(C)C)[C@]4(C)[C@H](O)C[C@]23C)cc1OC
EC50 [1]: 0.2 µM

CCCNCCC[C@@H](C)[C@H]1CC[C@@]2(C)[C@@H]3CC=C4[C@@H](CC[C@H](O)C4(C)C)[C@]3(C)[C@H](O)C[C@]12C
EC50 [1]: 0.15 µM | Ratio EC50 [2]: 20

C[C@H](CCCNCCc1ccccc1)[C@H]1CC[C@@]2(C)[C@@H]3CC=C4[C@@H](CC[C@H](O)C4(C)C)[C@]3(C)[C@H](O)C[C@]12C
EC50 [1]: 2 µM

COc1ccc(NCCC[C@@H](C)[C@H]2CC[C@@]3(C)[C@@H]4CC=C5[C@@H](CC[C@H](O)C5(C)C)[C@]4(C)[C@H](O)C[C@]23C)cc1
EC50 [1]: 4.7 µM

C[C@H](CCCNCc1ccc(Cl)cc1)[C@H]1CC[C@@]2(C)[C@@H]3CC=C4[C@@H](CC[C@H](O)C4(C)C)[C@]3(C)[C@H](O)C[C@]12C
EC50 [1]: 0.6 µM

C[C@H](CCCNCCCn1ccnc1)[C@H]1CC[C@@]2(C)[C@@H]3CC=C4[C@@H](CC[C@H](O)C4(C)C)[C@]3(C)[C@H](O)C[C@]12C
EC50 [1]: 3.5 µM

C[C@H](CCCNCc1ccc(F)cc1)[C@H]1CC[C@@]2(C)[C@@H]3CC=C4[C@@H](CC[C@H](O)C4(C)C)[C@]3(C)[C@H](O)C[C@]12C
EC50 [1]: 0.7 µM

C[C@H](CCCNCCCO)[C@H]1CC[C@@]2(C)[C@@H]3CC=C4[C@@H](CC[C@H](O)C4(C)C)[C@]3(C)[C@H](O)C[C@]12C
EC50 [1]: 1.4 µM

COc1ccc(CCNCCC[C@@H](C)[C@H]2CC[C@@]3(C)[C@@H]4CC=C5[C@@H](CC[C@H](O)C5(C)C)[C@]4(C)[C@H](O)C[C@]23C)cc1OC
EC50 [1]: 0.5 µM

C[C@H](CCCNCc1ccccc1)[C@H]1CC[C@@]2(C)[C@@H]3CC=C4[C@@H](CC[C@H](O)C4(C)C)[C@]3(C)[C@H](O)C[C@]12C
EC50 [1]: 1.5 µM
